Data on 4 molecules can be found in patent US6777229B1, “Plasmids from Corynebacterium glutamicum and use thereof” (Degussa AG, priority 1999, dated 2004).

Where only a bound is given, the exact number is not on record here.

What all share (test): Minimum inhibition concentration, NCCLS Approved Standard M7-A4 dilution test
Common to all, as to type: cell-based

The subject of test [1] is Corynebacterium glutamicum ATCC13032. Particulars: strain ATCC13032 (sensitive control), MÜLLER-HINTON bouillon. From the text: (§1) In order to identify antibiotic resistance genes on new plasmids, the strain to be investigated, in the present case Corynebacterium glutamicum LP-6, and a sensitive control strain, in the present case Corynebacterium glutamicum ATCC13032, are initially tested for resistance or sensitivity to various antibiotics and concentrations of antibiotics. […] Using the method of “Approved Standard M7-A4”, it is possible to determine inhibition concentrations and thus to ascertain the resistance of the investigated strain of bacteria.
(§2) In order to identify antibiotic resistance regions on the novel plasmids pTET3 or pCRY4, the resistant test strain Corynebacterium glutamicum LP-6 and the sensitive control strain Corynebacterium glutamicum ATCC13032 were initially cultured in the presence and absence of various antibiotics and antibiotic concentrations in accordance with the experimental method of the National Committee of Clinical Laboratory Standards (National Committee of Clinical Laboratory Standards, Methods for dilution antimicrobial susceptibility tests for bacteria that grow aerobically; Approved Standard, M7-A4 (1997)). The antibiotics required for this test, inter alia the antibiotics tetracycline, spectinomycin, streptomycin and sulfamethoxazole, were obtained from Sigma-Aldrich Chemie GmbH (Deisenhofen, Germany) and used in the concentrations stated in “Approved Standard M7-A4”. The nutrient medium required for this test, “MÖLLER-HINTON bouillon” was obtained from Merck KGaA (Darmstadt, Germany) and used in accordance with the manufacturer's instructions. Using the method of “Approved Standard M7-A4”, it is possible to determine inhibition concentrations (Table 1) and to identify the resistance of the bacterial strain Corynebacterium glutamicum LP-6 to the antibiotics tetracycline, spectinomycin, streptomycin and sulfamethoxazole. Plasmid DNA isolated from Corynebacterium glutamicum LP-6 using an alkaline lysis method (“NucleoBond Nucleic Acid Purification Kits and Cartridges User Manual (PT3167-1)”, Clonetech Laboratories GmbH, Heidelberg, Germany, 1997) was then transferred with electrical assistance into Corynebacterium glutamicum ATCC13032. Selection was performed directly for the presence of the identified tetracycline resistance in the primary selection on LB agar containing 5 μg/ml of tetracycline. […] The transformed strain was named Corynebacterium glutamicum ATCC13032 [pTET3].

For test [2], the system named is Corynebacterium glutamicum LP-6. Conditions: strain LP-6 (resistant test strain).
Description: as §1, §2

In test [3] the test system is Corynebacterium glutamicum ATCC13032 [pTET3]. Particulars: strain ATCC13032 [pTET3]. The text has this: In order to identify antibiotic resistance genes on new plasmids, the strain to be investigated, in the present case Corynebacterium glutamicum LP-6, and a sensitive control strain, in the present case Corynebacterium glutamicum ATCC13032, are initially tested for resistance or sensitivity to various antibiotics and concentrations of antibiotics. The National Committee of Clinical Laboratory Standards (NCCLS) experimental procedure is preferably used for this purpose (“Methods for dilution antimicrobial susceptibility tests for bacteria that grow aerobically”, fourth edition; Approved Standard, M7-A4, NCCLS 17(2), (1997)). Using the method of “Approved Standard M7-A4”, it is possible to determine inhibition concentrations and thus to ascertain the resistance of the investigated strain of bacteria.
The plasmid to be investigated, in the present case pTET3, is then isolated from strain LP-6 as described above and used to transform a suitable control or indicator strain, in the present case strain ATCC13032. Methods for transforming coryneform bacteria are described, for example, in Thierbach et al. ([…] 29, 356-362 (1988)), in Liebl et al. (FEMS Microbiology Letters 65, 299-304 (1989)) or in Dunican et al. (Bio/Technology 7, 1067-1070 (1989)). Selection is performed on conventional, complex nutrient media, such as for example brain-heart bouillon or Luria-Bertani medium, which are supplemented with the appropriate antibiotics. The antibiotic and the concentration thereof for this selection process is determined on the basis of the above-mentioned “Approved Standard, M7-A4”. In this manner, strain ATCC13032[pTET3], is obtained by selection for tetracycline resistance. The resistance/sensitivity of strain ATCC13032[pTET3) and of the control strain ATCC13032 is then investigated using the above-mentioned method, yielding the result that strain ATCC13032[pTET3] is resistant to the antibiotics tetracycline, streptomycin, spectinomycin and sulfamethoxazole.
In order to identify antibiotic resistance regions on the novel plasmids pTET3 or pCRY4, the resistant test strain Corynebacterium glutamicum LP-6 and the sensitive control strain Corynebacterium glutamicum ATCC13032 were initially cultured in the presence and absence of various antibiotics and antibiotic concentrations in accordance with the experimental method of the National Committee of Clinical Laboratory Standards (National Committee of Clinical Laboratory Standards, Methods for dilution antimicrobial susceptibility tests for bacteria that grow aerobically; Approved Standard, M7-A4 (1997)). […]

In the case of `CN[C@@H]1[C@H](O)[C@H](NC)[C@H]2O[C@@]3(O)C(=O)C[C@@H](C)O[C@H]3O[C@@H]2[C@H]1O` [Spectinomycin], the Minimum inhibition concentration entry in test [1] is listed as “≦50 μg of antibiotic per ml”; in test [2], >2000 μg of antibiotic per ml; in test [3], >2000 μg of antibiotic per ml.

In the case of `[H]/N=C(/N)N[C@H]1[C@H](O)[C@@H](O)[C@H](O[C@@H]2O[C@@H](C)[C@](O)(C=O)[C@H]2O[C@@H]2O[C@@H](CO)[C@H](O)[C@@H](O)[C@@H]2NC)[C@@H](N/C(N)=N\[H])[C@@H]1O` [Streptotmycin], the Minimum inhibition concentration entry in test [1] is “≦0.5 μg of antibiotic per ml”; in test [2] it was “≦100 μg of antibiotic per ml”; in test [3] it was “≦100 μg of antibiotic per ml”.

`Cc1cc(NS(=O)(=O)c2ccc(N)cc2)no1` [Sulfamethoxazole]: the Minimum inhibition concentration result is on record as “≦150 μg of antibiotic per ml” in test [1], “≦300 μg of antibiotic per ml” in test [2] and “≦300 μg of antibiotic per ml” in test [3].

In the case of `CN(C)[C@@H]1C(O)=C(C(N)=O)C(=O)[C@@]2(O)C(O)=C3C(=O)c4c(O)cccc4[C@@](C)(O)[C@H]3C[C@@H]12` [Tetracycline], the values for the Minimum inhibition concentration entry in test [1], in test [2] and in test [3] were “≦0.75 μg of antibiotic per ml”, “≦12 μg of antibiotic per ml” and “≦12 μg of antibiotic per ml”, respectively.
